Experiments:
[1] = test system: methicillin-Sensitive Staphylococcus aureus (MSSA); assay: Test C: planktonic antibacterial broth microdilution assay (MIC) vs MSSA; assay type: cell-based; settings: 37° C., growth read after 24 to 48 hours at OD 600 nm
Experimental: (§1) Test C. Planktonic (Free-Living) Antibacterial Assay.
(§2) Planktonic antibacterial activity can be determined using a broth microdilution assay in which log-phase bacteria are grown at 37° C. in appropriate medium containing two-fold serial dilutions of a compound to yield a final concentration ranging from 256 to 0.1 μg/ml. For determination of minimal inhibitory concentration (MIC) values, bacterial growth is monitored after 24 to 48 hours by measuring optical density at 600 nm.

MRSA = assay: Test C: planktonic antibacterial broth microdilution assay (MIC) vs MRSA; assay type: cell-based; settings: Staphylococcus aureus, 37° C., growth read after 24 to 48 hours at OD 600 nm
Experimental: as §1, §2

S. aureus FtsZ GTPase = target: T1, S. aureus FtsZ GTPase (Staphylococcus aureus, UniProt P0A031); assay: Test B: FtsZ GTPase inhibition, colorimetric malachite green assay; assay type: biochemical; settings: 1 mM GTP, 20 mM CaCl2, 2 μM FtsZ, 60 minutes at room temperature, read-out: IC50 (compound concentration at which FtsZ GTPase activity is inhibited by 50%)
T1 sequence (P0A031 1-390): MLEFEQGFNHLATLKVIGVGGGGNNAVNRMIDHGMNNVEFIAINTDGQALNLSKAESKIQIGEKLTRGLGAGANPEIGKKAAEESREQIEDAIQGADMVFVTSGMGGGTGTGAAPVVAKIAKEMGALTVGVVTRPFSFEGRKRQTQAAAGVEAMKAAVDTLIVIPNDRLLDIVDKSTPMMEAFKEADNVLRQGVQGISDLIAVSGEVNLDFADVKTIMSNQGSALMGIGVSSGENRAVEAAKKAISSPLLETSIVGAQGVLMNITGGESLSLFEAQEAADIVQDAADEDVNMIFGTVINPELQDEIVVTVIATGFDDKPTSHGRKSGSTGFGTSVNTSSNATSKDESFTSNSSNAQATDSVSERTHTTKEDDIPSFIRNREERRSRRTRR
Source text: Test B. Determining the FtsZ GTPase Inhibitory Activities of Compounds of the Invention.
Compound-induced inhibition of the FtsZ GTPase activity can be tested using a colorimetric assay in which the inorganic phosphate (Pi) released upon FtsZ-catalyzed hydrolysis of GTP reacts with malachite green and molybdate under acidic conditions to form a ternary complex that absorbs light at 650 nm, thus enabling quantitation of Pi levels by recording the absorbance at 650 nm (A650). All reactions are conducted in triplicate in 96-well microtiter plates. Differing concentrations (ranging from 0 to 1.5 mM) of compound are combined with 1 mM GTP and 20 mM CaCl2, the latter being used because FtsZ GTPase activity requires the presence of Ca2+ ions. The reactions will be initiated by addition of 2 μM FtsZ and allowed to incubate for 60 minutes at room temperature. Following incubation, the reactions will be stopped by adding 80 μl of an acidic malachite green-molybdate solution containing 0.3 mg/ml malachite green oxalate, 2 mg/ml sodium molybdate, 0.5 mg/ml Triton X-100, and 0.7 N HCl. […] Ten minutes following addition of the acidic malachite green-molybdate solution, the A650 value for each reaction are recorded using a microtiter plate reader. […] This standard curve is then fit by linear regression analysis to yield the quantitative relationship between A650 and Pi concentration. […]

Compound | MIC [1] [µg/mL] | MIC (MRSA) [µg/mL] | IC50 (S. aureus FtsZ GTPase) [µM]
COc1cc2cc(-c3cccc(C(C)(C)C)c3)nc(CN=C(N)N)c2cc1OC [Example 13] | ≤ 8 | ≤ 8 | 
COc1cc(-c2cc3cc(OC)c(OC)c(OC)c3c(C)[n+]2C)cc(-c2cccc(-c3ccc(F)cc3)c2)c1OC.[I-] [Example 15] | ≤ 8 | ≤ 8 | 
COc1cc(-c2cc3cc(OC)c(OC)c(OC)c3c(C)[n+]2C)cc(-c2cc(-c3ccc(F)cc3)cc(-c3ccc(F)cc3)c2)c1OC.[I-] [Example 19] | ≤ 8 | ≤ 8 | < 100
COc1cc(-c2cc3ccccc3c[n+]2C)cc(-c2cccc(-c3ccc(F)cc3)c2)c1OC.[I-] [Example 22] | ≤ 8 |  | < 100
COc1cc2cc(-c3cccc(C(C)(C)C)c3)nc(C/N=C(/C)N)c2cc1OC [Example 23] | ≤ 8 |  | 

More lines, now with the values ahead:

MIC [1] [µg/mL] | MIC (MRSA) [µg/mL] | IC50 (S. aureus FtsZ GTPase) [µM] | Compound
≤ 32 |  |  | COc1cc2cc(-c3cc(-c4ccccc4)cc(-c4ccccc4)c3)nc(N=C(N)N)c2cc1OC [Example 3]
≤ 8 |  |  | COc1cc2cc(-c3cccc(-c4ccccc4)c3)[n+](C)c(N(C)C)c2cc1OC.[I-] [Example 5]
≤ 8 |  |  | COc1cc2cc(-c3cccc(-c4ccccc4)c3)nc(N=C(N)N)c2cc1OC [Example 7]
≤ 8 |  |  | COc1cc2cc(-c3cccc(-c4ccccc4)c3)nc(NCCN)c2cc1OC [Example 9]
